Structures are written as SMILES.

This note sets out measurements from BindingDB's records for doi:10.1016/j.bioorg.2016.01.008 (King Abdulaziz University, 2016).

This test deals with Alpha-glucosidase MAL12 (Saccharomyces cerevisiae (strain ATCC 204508 / S288c), UniProt P53341). In words: In-vitro Yeast α-Glucosidase Inhibition Assay. The method, then: α-Glucosidase inhibitory activity was evaluated at 37 °C, by using 0.1M phosphatebuffer (pH6.8) [28]. The enzyme(EC3.2.1.20, Saccharomyces cerevisiae purchased from sigma; catalog # G5003) (0.2 U/mL) was incubated with test compounds and phosphate buffer at 37 °C for 15 min. After 15min of incubation, 0.7 mM of substrate i.e. p-nitrophenyl-α-D-glucopyranoside (Sigma; catalog # N1377) was added and the change in absorbance was recorded at 400 nm for 30min by using spectrophotometer (SpectraMax M2, Molecular Devices, CA, USA).
Chain of Alpha-glucosidase MAL12 (P53341 whole entry): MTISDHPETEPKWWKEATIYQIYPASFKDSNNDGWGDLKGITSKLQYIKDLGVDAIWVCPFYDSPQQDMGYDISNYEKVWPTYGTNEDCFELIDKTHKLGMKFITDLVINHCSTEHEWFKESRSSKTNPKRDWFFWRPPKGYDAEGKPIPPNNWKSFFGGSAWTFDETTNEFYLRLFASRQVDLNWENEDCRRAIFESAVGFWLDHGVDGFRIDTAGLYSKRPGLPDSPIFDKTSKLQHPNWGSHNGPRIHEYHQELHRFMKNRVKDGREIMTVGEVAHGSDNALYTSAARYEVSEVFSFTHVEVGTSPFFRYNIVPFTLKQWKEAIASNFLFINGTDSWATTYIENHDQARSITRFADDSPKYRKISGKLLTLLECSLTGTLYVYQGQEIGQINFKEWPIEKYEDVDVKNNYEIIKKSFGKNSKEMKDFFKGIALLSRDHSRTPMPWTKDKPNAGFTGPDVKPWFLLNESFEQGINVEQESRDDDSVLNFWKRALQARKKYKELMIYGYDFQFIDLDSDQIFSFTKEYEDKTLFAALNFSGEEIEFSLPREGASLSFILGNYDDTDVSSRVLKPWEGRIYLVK
One may read the IC50 as the concentration that gives 50% inhibition. Read a low IC50 as greater potency in that assay. Consider `Cc1[nH]nc2c1C(c1ccc([N+](=O)[O-])cc1)C(C#N)=C(N)O2` (stereo not given) [6-Amino-3-methyl-4-(4-nitrophenyl)-2,4-dihydropyrano[2,3-c]pyrazole-5-carbonitrile (1)], for which the IC50 came to 54.2 µM.

Turning to `Cc1n[nH]c2c1C(c1ccc(Cl)cc1Cl)C(C#N)=C(N)O2` (stereo not given) [6-Amino-4-(2,4-dichlorophenyl)-3-methyl-2,4-dihydropyrano[2,3-c]pyrazole-5-carbonitrile (4)], the midpoint of inhibition, the IC50, lay at 180 µM. Compared with the last compound, the IC50 is about 3.3-fold higher. Next, `Cc1[nH]nc2c1C(c1ccccc1OCc1ccccc1)C(C#N)=C(N)O2` (stereo not given) [6-Amino-4-(2-(benzyloxy)phenyl)-3-methyl-2,4-dihydropyrano[2,3-c]pyrazole-5-carbonitrile (33)]: 164 µM; `Cc1[nH]nc2c1C(c1ccc(O)c(OCc3ccccc3)c1)C(C#N)=C(N)O2` (stereo not given) [6-Amino-4-(3-(benzyloxy)-4-hydroxyphenyl)-3-methyl-2,4-dihydropyrano[2,3-c]pyrazole-5-carbonitrile (22)]: 160 µM. Then `COc1cc(C2C(C#N)=C(N)Oc3n[nH]c(C)c32)ccc1OCc1ccccc1` (stereo not given) [6-Amino-4-(4-(benzyloxy)-3-methoxyphenyl)-3-methyl-2,4-dihydropyrano[2,3-c]pyrazole-5-carbonitrile (30)], with 60.8 µM.
